This is an account of results in PubChem BioAssay AID1963965 (Molecular Pharmacology Branch, DTP, NCI, 2024).

The experiment deals with 996289-038-R-J1-PDC spheroid viability. The experiment can be described thus: Anticancer human tumor 996289-038-R-J1-PDC patient-derived colon adenocarcinoma cell line growth inhibition [PI3K]. The settings on record: spheroids with HUVEC and MSC; for viability, T/C: stronger effect = lower value. In a few lines: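 Three cell types, namely tumor cells, endothelial cells and mesenchymal stem cells, formed each spheroid. Combinations with four PI3K inhibitors were screened at clinically achievable concentrations decreasing by half-log, and spheroid viability was recorded.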
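Note: spheroids exposed to compounds for seven days before viability read.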
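Throughout, for viability, T/C: luminescence used as a proxy for viable cell amount; percent viability relative to DMSO vehicle control as 100%.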

For the compound `Cn1ncnc1[C@H]1c2n[nH]c(=O)c3cc(F)cc(c23)N[C@@H]1c1ccc(F)cc1` + CC(Nc1ncnc2nc[nH]c12)c1cc2cccc(Cl)c2c(=O)n1-c1ccccc1, the IC50 by setting is: (curve of first compound, second compound 0.0316 µM) above 100 nM; (curve of first compound, second compound 0.1 µM) above 100 nM; (curve of first compound, second compound 0.316 µM) above 100 nM; (curve of first compound, second compound 1 µM) above 100 nM; (curve of first compound, second compound 3.16 µM) above 100 nM; (curve of first compound, second compound 10 µM) above 100 nM. In addition, the viability, T/C was 97.1% (second compound 0.0316 µM, first compound 0.000316 µM); 99.7% (second compound 0.0316 µM, first compound 0.001 µM); 107% (second compound 0.0316 µM, first compound 0.00316 µM); 104% (second compound 0.0316 µM, first compound 0.01 µM); 111% (second compound 0.0316 µM, first compound 0.0316 µM); 94.3% (second compound 0.0316 µM, first compound 0.1 µM). Besides, the viability, T/C was 107% (second compound 0.1 µM, first compound 0.000316 µM); 98.4% (second compound 0.1 µM, first compound 0.001 µM); 96.1% (second compound 0.1 µM, first compound 0.00316 µM); 96.3% (second compound 0.1 µM, first compound 0.01 µM); 122% (second compound 0.1 µM, first compound 0.0316 µM); 96.4% (second compound 0.1 µM, first compound 0.1 µM). In addition, the viability, T/C runs as follows: (second compound 0.316 µM, first compound 0.000316 µM) 93.9%; (second compound 0.316 µM, first compound 0.001 µM) 102%; (second compound 0.316 µM, first compound 0.00316 µM) 110%; (second compound 0.316 µM, first compound 0.01 µM) 100%; (second compound 0.316 µM, first compound 0.0316 µM) 109%; (second compound 0.316 µM, first compound 0.1 µM) 89.8%. The viability, T/C by setting is: (second compound 1 µM, first compound 0.000316 µM) 95.1%; (second compound 1 µM, first compound 0.001 µM) 94.3%; (second compound 1 µM, first compound 0.00316 µM) 103%; (second compound 1 µM, first compound 0.01 µM) 96.3%; (second compound 1 µM, first compound 0.0316 µM) 103%; (second compound 1 µM, first compound 0.1 µM) 95.2%. Further, the viability, T/C by setting is: (second compound 3.16 µM, first compound 0.000316 µM) 90.4%; (second compound 3.16 µM, first compound 0.001 µM) 109%; (second compound 3.16 µM, first compound 0.00316 µM) 94.5%; (second compound 3.16 µM, first compound 0.01 µM) 96.3%; (second compound 3.16 µM, first compound 0.0316 µM) 95.4%; (second compound 3.16 µM, first compound 0.1 µM) 94.8%. Besides, the viability, T/C (second compound 10 µM, first compound 0.000316 µM) is 90%; the viability, T/C (second compound 10 µM, first compound 0.001 µM) was 90.5%; the viability, T/C (second compound 10 µM, first compound 0.00316 µM) is 96.8%; the viability, T/C (second compound 10 µM, first compound 0.01 µM) is 81.5%; the viability, T/C (second compound 10 µM, first compound 0.0316 µM) was 94.6%; the viability, T/C (second compound 10 µM, first compound 0.1 µM) is 77.8%.

As to `CC1(C)CCC(Nc2ncc(C(F)(F)F)c(-c3c[nH]c4c(P(C)(C)=O)c(C#N)ccc34)n2)CN1` (stereo not given), the viability, T/C runs as follows: (compound 0.1 µM) 86.5% [middle of 4 runs]; (compound 0.316 µM) 86% [middle of 4 runs]; (compound 1 µM) 88.9% [middle of 4 runs]; (compound 3.16 µM) 91.5% [middle of 4 runs]; (compound 10 µM) 26.9% [middle of 4 runs]. For the same compound, the IC50 (curve of compound) was 6.64 µM [middle of 4 runs].

As for `C#Cc1c(F)ccc2cc(O)cc(-c3ncc4c(N5CC6CCC(C5)N6)nc(OCC56CCCN5CC(F)C6)nc4c3F)c12` (stereo not given), the viability, T/C by setting is: (compound 0.0316 µM) 90.4% [middle of 4 runs]; (compound 0.1 µM) 83.8% [middle of 4 runs]; (compound 0.316 µM) 70.2% [middle of 4 runs]; (compound 1 µM) 52.4% [middle of 4 runs]; (compound 3.16 µM) 44.8% [middle of 4 runs]; (compound 10 µM) 37.7% [middle of 4 runs]. Besides, the IC50 (curve of compound) was 1.79 µM [middle of 4 runs].

In general, IC50 refers to the concentration that gives 50% inhibition. What is called viability, T/C is the ratio of treated to control.
